Article PMC12004904, “Antifouling Activity of Xylemin, Its Structural Analogs, and Related Polyamines” (Chemistry & Biodiversity, 2025)
In brackets after ≈: the same amount, converted by molar mass.

Experiments:
[1] = system: cypris larvae of the barnacle Amphibalanus amphitrite; experiment: Antifouling (settlement inhibition) assay against barnacle cypris larvae; assay type: in vivo; details: 96 h; for EC50: Amphibalanus amphitrite; for EC50 / Antifouling activity EC50: cypris larvae, 24‐well plates, 25°C, dark, concentration reducing larval settlement to 50% of negative control; for Antifouling (settlement‐inhibitory) activity in words: up to 50 µg/mL
Protocol: First, the biological activities of xylemin (1) and its related compounds were assayed against the cypris larvae of the barnacle A. amphitrite. The larvae were treated using 24‐well polystyrene plates with 6 different concentrations of the compounds at 25°C in the dark for 96 h.
Evaluation of the biological activity and statistical analysis were conducted according to the previous work. Adult barnacles of A. amphitrite attached to stones were collected in Kobe, Japan, in 2023 and maintained in aquaria. Nauplii released from adults were cultured in filtered seawater (FSW) with penicillin/streptomycin (FUJIFILM Wako Pure Chemical Corp., Osaka, Japan) and fed Chaetoceros calcitrans at 25°C, under a 12 h light/12 h dark cycle. The larvae reached the cypris stage after 5–6 days. Cyprids were collected, rinsed with FSW, and stored in the dark at 5°C for 3–4 days until use. The effects of the compounds on barnacle cyprids were evaluated using 24‐well polystyrene plates (Corning Inc., Corning, NY, USA). Each compound was dissolved in MeOH, and the solution was diluted with the same solvent to concentrations of 0.01, 0.03, 0.1, 0.3, 1.0, and 5.0 µg/µL. Aliquots (10 µL) of the solutions were added to the wells of the polystyrene plates and air‐dried. Each well was charged with approximately ten cypris larvae and FSW (1.0 mL). The plates were incubated at 25°C in the dark for 96 h. […] Each concentration was tested in three wells, and the experiment was performed three times with different batches of larvae. The assay was conducted using CuSO4 (0.01, 0.03, 0.1, 0.3, 1.0, 3.0, and 10 µg) as a positive control. An assay without any compound was used as a negative control. Settlement inhibition was calculated based on negative control settlement. Antifouling activity (EC50) and toxicity (LC50) were calculated using probit analyses. EC50 indicates the concentration that reduces the larval settlement to 50% of the negative control. LC50 indicates the concentration that causes 50% mortality.

xylem formation = system: xylem formation; design: method as in PMID 26879262; details: cited from earlier work
[2] = system: thermospermine synthase ACAULIS5 (ACL5); design: method as in ref 25 = [25]; 25 H. Takamura , H. Motose , T. Otsu , et al., “ Chemical Synthesis and Biological Effect on Xylem Formation of Xylemin and Its Analogues ,” European Journal of Organic Chemistry 2020 ( 2020 ): 2745 –; details: cited from earlier work
[3] = system: zooplankton Artenia larvae; design: method as in PMID 27919420; details: cited from earlier work
barnacle A. amphitrite = system: barnacle A. amphitrite; design: method as in ref 30 = [30]; 30 J. A. Ponasik , S. Conova , D. Kinghorn , W. A. Kinney , D. Rittschof , and B. Ganem , “ Pseudoceratidine, a Marine Natural Product with Antifouling Activity: Synthetic and Biological Studies ,” Te; details: cited from earlier work

SMILES | EC50 [1] | Antifouling (settlement‐inhibitory) activity in words [1] | further results
NCCCCNC1CCCC1 [Compound 4, N‐(4‐aminobutyl)cyclopentylamine] | > 50 µg/mL | no inhibitory activity | Xylem formation / differentiation (xylem formation): significant activity in promoting xylem differentiation
CCCNCCCCN [Compound 1, N‐(4‐aminobutyl)propylamine] | 4.25 µg/mL (≈ 32.6 µM) | – | Expression of ACL5 [2]: promoted the expression; Xylem formation / differentiation (xylem formation): enhanced xylem formation
NCCCCNC1CCCCC1 [Compound 5, N‐(4‐aminobutyl)cyclohexylamine] | > 50 µg/mL | lacked antifouling activity | –
CCCNCCCCNC(=O)OC(C)(C)C [Compound 2] | 6.11 µg/mL (≈ 26.5 µM) | – | –
NCCCCNC1CCCCCC1 [Compound 6, N‐(4‐aminobutyl)cycloheptylamine] | > 50 µg/mL | lacked antifouling activity | –
CN(C)C(=O)Nc1ccc(Cl)c(Cl)c1 [Diuron] | – | – | LC50 (50% lethal concentration) [3]: 30.6 µg/mL (≈ 131 µM)
NCCCNCCCCNCCCN [Compound 9, spermine, reference compound] | – | – | Antifouling activity EC50 [1]: >50 µg/mL
NCCCCNCCCN [Compound 8, spermidine, reference compound] | – | did not exhibit antifouling activity | Antifouling activity EC50 [1]: >50 µg/mL
CCC(CC)NCCCCN [Compound 3, N‐(4‐aminobutyl)‐1‐ethylpropylamine] | > 50 µg/mL | – | –
NCCCCNCCCNCCCN [Compound 10, thermospermine, reference compound] | – | – | Antifouling activity EC50 [1]: >50 µg/mL
NCCCCNC1CCCC1 [N‐(4‐aminobutyl)cyclopentylamine] | – | – | Expression of ACL5 [2]: promoted the expression; Xylem formation / differentiation (xylem formation): enhanced xylem formation
NCCCNCCCCNCCCN [spermine] | > 50 µg/mL | – | –
NCCCCNCCCNCCCN [thermospermine] | > 50 µg/mL | – | –
NCCCCNCCCN [spermidine] | > 50 µg/mL | – | –
NCCCCN [Compound 7, putrescine, reference compound] | > 50 µg/mL | non‐antifouling activity | –
O=C(O)c1cc(Br)c(Br)[nH]1 [4,5‐dibromopyrrole‐2‐carboxylic acid] | – | – | Antifouling activity EC50 (barnacle A. amphitrite): 15 µg/mL
